Assay results taken from patent US20160101125A1, “COMPOSITIONS FOR USE IN CARTILAGE BREAKDOWN” (NESTEC S.A., priority 2013, published 2016).

Assays:
Format in all cases: cell-based, Bos Taurus
Conditions in all cases: 1.5 μM, 3 days
MMP-13 mRNA = MMP-13 mRNA expression in bovine primary chondrocytes in alginate beads (real-time PCR, relative to GAPDH)
ADAMTS-5 mRNA = ADAMTS-5 mRNA expression in bovine primary chondrocytes in alginate beads (real-time PCR, relative to GAPDH)
COX-2 mRNA = COX-2 mRNA expression in bovine primary chondrocytes in alginate beads (real-time PCR, relative to GAPDH)
Experimental: The foot of a young cow was washed to remove soil. The skin was removed from the foot. The articulation was opened transversally. Intra articular ligaments were transected. The opened articulation was washed with phosphate buffered saline. With a scalpel blade, full thickness slices of cartilage were dissected out and collected in DMEM high glucose with 10 mM hepes and 1% Penicillin-Streptomycin. Slices of cartilage were washed in DMEM high glucose with 10 mM hepes and 1% Penicillin-Streptomycin.
Cartilage was then digested successively by 0.5 mg/ml of hyluronidase during 30 minutes, 1.0 mg/ml of pronase E during 60 minutes and 1.0 mg/ml of collagenase overnight under slow agitation. […]
Total RNA was isolated from pool of 40 beads and isolated using RNeasy kit from Qiagen. cDNA was obtained by reverse transcription of RNA with the Primescript 1st strand cDNA Synthesis kit from Takara. mRNA expression of ADAMTS-5, COX-2, MMP-13 and GAPDH were quantified in real-time PCR (SYBR Green)
FIGS. 1 to 3 show mRNA expression of ADAMTS-5, COX-2 and MMP-13 normalized by GAPDH mRNA expression after 3 days of culture. Data were expressed as fold change in gene expression compared to negative control (cells cultured in complete medium). Results were calculated according to the 2^−ΔΔCT method.
IL1a interleukin-1 alpha 10 ng/ml Data were expressed as median±S.E. Median (2 experiments of 3 replicates each). […]

[1] = absence of IL1a (normal conditions)
[2] = presence of IL1a 10 ng/ml (disease conditions)

O=c1c(O)c(-c2ccc(O)c(O)c2)oc2cc(O)cc(O)c12 [QRC, quercetin] was tested, and the “MMP-13 mRNA expression relative to GAPDH” value (MMP-13 mRNA; [1]) was “decrease”, the “MMP-13 mRNA expression relative to GAPDH” value (MMP-13 mRNA; [2]) was “decrease” and the “ADAMTS-5 mRNA expression relative to GAPDH” value (ADAMTS-5 mRNA; [1]) was “decrease”. For the same compound, the “ADAMTS-5 mRNA expression relative to GAPDH” value (ADAMTS-5 mRNA; [2]) was “decrease”, the “COX-2 mRNA expression relative to GAPDH” value (COX-2 mRNA; [1]) was “reduce” and the “COX-2 mRNA expression relative to GAPDH” value (COX-2 mRNA; [2]) was “decrease”.
